# Source: patent publication US20070191292A1, “Antimycotic rhamnolipid compositions and related methods of use” (priority 2006, published 2007)
# Where two headings read alike, the source gives them in different places. Bridge positions count the residues as written; N and C are the ends. Square brackets hold non-standard residues; d marks the D form. Peptide text beside a SMILES is read from it. * marks the point of attachment. Asp(3S-OH) = N[C@H](C(=O)O)[C@H](O)C(=O)O; Thr(4-Cl) = N[C@H](C(=O)O)[C@H](O)CCl; X1 = CCCCCCCCC[C@@H](O)CC(=O)*; dDab = NCC[C@@H](N)C(=O)O; Dab = NCC[C@H](N)C(=O)O; Dhb = C/C=C(\N)C(=O)O
# Experiments:
# [1] = system: Saccharomyces cerevisiae SRE resistant mutant strains Δsmr1,Δsyr2,Δipt1, Δelo2,Δelo3,Δfah1; assay: Replica plate growth inhibition, sphingolipid and sterol biosynthetic mutants; format: cell-based; conditions: parent strains 8A-1B, W303, BY4741
# Description: To investigate the mechanism of action of SYRA, Saccharomyces cerevisiae sphingolipid and sterol biosynthetic mutants were used. Saccharomyces cerevisiae parent strains 8A-1B, W303, BY4741 and SRE resistant mutant strains Δsmr1,Δsyr2,Δipt1, Δelo2,Δelo3,Δfah1 were utilized, as described previously (Stock, S. D., H. Hama, J. A. Radding, D. A. Young, and J. Y. Takemoto. 2000. Syringomycin E inhibition of Saccharomyces cerevisiae: requirement for biosynthesis of sphingolipids with very-long-chain fatty acids and mannose- and phosphoinositol-containing head groups. Antimicrob. Agents Chemother. 44:1174-80.). For growth inhibition, a replica plate method was used (Hama, J., D. A. Young, J. A. Radding, D. Ma, J. Tang, S. D. Stock, and J. Y. Takemoto. 2000. Requirement of sphingolipid alpha-hydroxylation for fungicidal action of syringomycin E. FEBS Lett. 478:26-8). Fresh cells were replica plated onto yeast extract-peptone-dextrose (YPD) agar containing different concentrations of SYRA. Growth with and without SYRA addition were compared to determine relative sensitivity.
# R.pilimanae = format: cell-based, Rhodotorula pilimanae
# Method: (§1) Disk diffusion methods similar to those described by the NCCLS protocols for antifungal testing (Washington, G. L. W. a. J. A. 1995. Antibacterial Susceptibility Tests: Dilution and Disk Diffusion Methods, p. 1327-1341. in P. R. Murray (ed.), Manual of Clinical Microbiology, sixth ed.) were used. FIGS. 2(A) through 2(D) illustrate typically observed result assessments for antimicrobial combinations using the disk diffusion method.
# (§2) Tested fungi, utilized in the examples that follow, were grown in RPMI Medium and adjusted to 5×10^4 CFU/ml, and transferred onto solid agar medium of the appropriate growth medium. The cultures were spread over the surface as a thin film. Four millimeter-diameter sterilized paper disks were deposited on the surface and syringomycin E and rhamnolipids were applied on disk 1 and disk 2, respectively (in approximately about 7 to about 10 μl aliquots). The distance between the disks was equal to the sum of radii of zones of inhibition of the drugs applied alone. The plates were incubated at approximately 35° C. for approximately 24-72 h.
# (§3) SYRA was obtained by mixing SRE and rhamnolipids at different relative concentrations. SYRA was tested against a variety of yeasts and fungi and the zone of inhibition was measured as described with reference to Examples 2A and 2B.
# [2] = system: a variety of yeast and fungi; assay: Antifungal activities against a variety of yeast and fungi (Table 1); format: cell-based; conditions: component alone; Tables 1 and 2
# Description: (§4) The checkerboard method is used frequently to evaluate antimicrobial combinations in vitro (Lorian, V., M. D. 1996. Antibiotics in Laboratory Medicine, 4th ed.). The tests were easily performed at the laboratory level by using the microdilution method. The results obtained from this study provided a better understanding of the nature of the interaction between SRE and rhamnolipids.
# The checkerboard method is described by Sabath et al. (Sabath, L. D. 1967. Synergy of antibacterial substances by apparently known mechanisms. Antimicrob. Agents Chemother. 7:210-7.) and Garrod et al. (Garrod L. P. and P. M. Waterworth. 1962. Methods of testing combined antibiotic bactericidal action and the significance of the results. J. Clin. Pathol. 15:328-38.). A 96-well plate was used to determine the fractional inhibitory concentrations (FICs). Serial twofold dilutions of SRE and rhamnolipids were prepared separately. […] The plate was incubated at 35° C. for 24-72 h. and the FICs were calculated using the equation: (A/MICa)+(B/MICb)=FICa+FICb=FIC index, where A and B are concentrations of SRE and rhamnolipids, MICa and MICb are the minimum inhibitory concentrations, and FICa and FICb are the fractional inhibitory concentrations of SRE and rhamnolipids, respectively. […]
# W303C = assay: Disk diffusion, zone of inhibition; format: cell-based, Saccharomyces cerevisiae
# Method: as §1, §2
# 8A-1B = assay: Disk diffusion, zone of inhibition; format: cell-based, Saccharomyces cerevisiae
# Method: as §1, §2
# Rhodotorula pilimanae = format: cell-based; conditions: SRE alone (0.5 mg/ml solution, diluted)
# Description: as §4
# (§5) The checkerboard method is described by Sabath et al. (Sabath, L. D. 1967. Synergy of antibacterial substances by apparently known mechanisms. Antimicrob. Agents Chemother. 7:210-7.) and Garrod et al. (Garrod L. P. and P. M. Waterworth. 1962. Methods of testing combined antibiotic bactericidal action and the significance of the results. J. Clin. Pathol. 15:328-38.). A 96-well plate was used to determine the fractional inhibitory concentrations (FICs). Serial twofold dilutions of SRE and rhamnolipids were prepared separately. Then 25 μl of different concentrations of syringomycin are added in a vertical orientation and the rhamnolipids were added in horizontal orientation. The final volume of the well contained 50 μl of the subject composition and 50 μl of the tested culture. The plate was incubated at 35° C. for 24-72 h. and the FICs were calculated using the equation: (A/MICa)+(B/MICb)=FICa+FICb=FIC index, where A and B are concentrations of SRE and rhamnolipids, MICa and MICb are the minimum inhibitory concentrations, and FICa and FICb are the fractional inhibitory concentrations of SRE and rhamnolipids, respectively.
# (§6) SRE and Rh solutions were prepared, at the concentrations shown (mg/ml), then diluted and used to determine the minimum inhibitory concentration (MIC, μg/ml) of each, alone and in composition with the other (SYRA and SYRA2). […] Beneficial effects against the other organisms tested are evidenced by examination and analysis of the corresponding data.
# Penicillium sp1 = format: cell-based; conditions: SRE alone (0.5 mg/ml solution, diluted)
# Description: as §4, §5, §6
# Rhizoctonia solani = format: cell-based; conditions: SRE alone (0.5 mg/ml solution, diluted)
# Description: as §4, §5, §6
# Aspergillus flavus = format: cell-based; conditions: SRE alone (0.5 mg/ml solution, diluted)
# Description: as §4, §5, §6
# Botrytis sp = format: cell-based; conditions: SRE alone (0.5 mg/ml solution, diluted)
# Description: as §4, §5, §6
# Rhizopus stonifer = format: cell-based; conditions: SRE alone (0.5 mg/ml solution, diluted)
# Description: as §4, §5, §6
# Fusarium oxysporum = format: cell-based; conditions: SRE alone (0.5 mg/ml solution, diluted)
# Description: as §4, §5, §6
# Penicillium sp2 = format: cell-based; conditions: SRE alone (0.5 mg/ml solution, diluted)
# Description: as §4, §5, §6
# Candida albicans = format: cell-based; conditions: SRE alone (0.5 mg/ml solution, diluted)
# Description: as §4, §5, §6
# Cladosporium sp = format: cell-based; conditions: SRE alone (0.5 mg/ml solution, diluted)
# Description: as §4, §5, §6
# BY4741 = format: cell-based, Saccharomyces cerevisiae
# Method: as §1, §2, §3
smiles,measurement,setting,value
"C/C=C1\NC(=O)[C@H](Cc2ccccc2)NC(=O)[C@H](CCCNC(=N)N)NC(=O)[C@H](CCN)NC(=O)[C@@H](CCN)NC(=O)[C@@H](CO)NC(=O)[C@@H](NC(=O)C[C@H](O)CCCCCCCCC)COC(=O)[C@H]([C@H](O)CCl)NC(=O)[C@H]([C@H](O)C(=O)O)NC1=O [SRE, Syringomycin E] (X1-S[dS][dDab][Dab]RF[Dhb][Asp(3S-OH)][Thr(4-Cl)]; ester 1-C)",growth inhibitory activity in mutants compared to wild type,[1],less in the mutants as compared to the wild type
same,Zone of Inhibition,R.pilimanae; SRE alone 2.4 mg/ml,19.0 mm
same,Zone of Inhibition,R.pilimanae; SRE alone 5.6 mg/ml,21.5 mm
same,Zone of Inhibition,R.pilimanae; SRE alone 10.3 mg/ml,23.0 mm
same,"antifungal activities, alone",[2],strong activity
same,Zone of Inhibition,W303C; SRE alone 2.4 mg/ml,26.0 mm
same,Zone of Inhibition,W303C; SRE alone 5.6 mg/ml,28.0 mm
same,Zone of Inhibition,W303C; SRE alone 10.3 mg/ml,29.0 mm
same,Zone of Inhibition,8A-1B; SRE alone 2.4 mg/ml,17.5 mm
same,Zone of Inhibition,8A-1B; SRE alone 5.6 mg/ml,19.0 mm
same,Zone of Inhibition,8A-1B; SRE alone 10.3 mg/ml,20.0 mm
same,MIC,Rhodotorula pilimanae,3.9 µg/mL
same,MIC,Penicillium sp1,7.8 µg/mL
same,MIC,Rhizoctonia solani,3.9 µg/mL
same,MIC,Aspergillus flavus,7.8 µg/mL
same,MIC,Botrytis sp,3.9 µg/mL
same,MIC,Rhizopus stonifer,7.8 µg/mL
same,MIC,Fusarium oxysporum,7.8 µg/mL
same,MIC,Penicillium sp2,7.8 µg/mL
same,MIC,Candida albicans,3.9 µg/mL
same,MIC,Cladosporium sp,3.9 µg/mL
same,Zone of Inhibition,BY4741; SRE alone 2.4 mg/ml,19.0 mm
same,Zone of Inhibition,BY4741; SRE alone 5.6 mg/ml,21.0 mm
same,Zone of Inhibition,BY4741; SRE alone 10.3 mg/ml,23.0 mm
